“Also recorded” adds a separate entry of the source. Read-outs that look alike come from different tables or passages of the source.
Tests used:
[1] = Lipid peroxidation inhibition, thiobarbituric acid reactive substances (TBARS) method; type: biochemical; conditions: inhibition of lipid peroxidation
Source text: (§1) Because lipid peroxidation (LPO) is a common marker of damage induced by reactive oxygen species (ROS) (Gutteridge JMC, “Lipid-peroxidation and antioxidants as biomarkers of tissue-damage,” Clin Chem, 41: 1819-1828 (1995); Kaur and Geetha, “Screening methods for antioxidants—A review,” Mini-Rev Med Chem, 6: 305-312 (2006)), two assays were employed to measure capacity to inhibit LPO: the ferric thiocyanate (FTC) and the thiobarbituric acid reactive substances (TBARS) methods. With these assays, the autoxidation of linoleic acid (a lipid model) is measured in the absence and, then, presence of different concentration of antioxidants. […] During the oxidation process, peroxide is gradually decomposed to lower molecular-weight compounds such as malondialdehyde (MDA) that is measured by the TBARS method (Kikuzaki and Nakatani, J Food Sci, 58: 1407-1410 (1993)). […]
(§2) The TBARS assay is a widely adopted and sensitive method for measurement of lipid peroxidation (Callaway J K, Beart P M and Jarrott B. “A reliable procedure for comparison of antioxidants in rat brain homogenates.” J Pharmacol Toxicol Meth, 39: 155-162 (1998)). […] The MDA-TBA complex measured by the TBARs assay is a gauge of LOOH formation (Janero D R. “Malondialdehyde and thiobarbituric acid-reactivity as diagnostic indices of lipid peroxidation and peroxidative tissue injury.” Free Rad Biol Med, 9: 515-540 (1990)). […]

[2] = system: Human retinal ganglial cells (RGC); experiment: Viability of retinal ganglial cells (RGC) incubated with glutamate; type: cell-based; conditions: for effect on RGC viability, compound alone: without glutamate; for RGC killed by glutamate in the presence of the compound: glutamate 5 mM plus compound (three concentrations)
Experimental: Human retinal ganglial cells (RGC) were incubated with glutamate (5 mM), the estrogen analogue 3,17-dihydroxyestra-1,3,5(10),9(11)-tetraene (ZYC1) or combination of glutamate and various concentrations of ZYC1.
RGC were treated with glutamate (5 mM) in the presence or absence of ZYC1.

[3] = Lipid peroxidation inhibition, ferric thiocyanate (FTC) method; type: biochemical; conditions: inhibition of lipid peroxidation
Source text: as §1, §2

[4] = logP measured by the shake-flask method; type: physicochemical
[5] = 37° C.
Experimental: By way of example, conversion of Formula II by NAD(P)H as an endogenous reducing agent was tested. […] At incremental time points, 100 μl aliquots were removed into ice-cold centrifuge tubes, and 100 μl of glacial acetic acid was added. After immediate extraction with ethyl acetate, the organic layer was evaporated under nitrogen stream. […] For the control experiment, no reducing agent was used.
Liquid chromatography separation was done using a Supelco (Bellfonte, Pa.) 5 cm×2.1 mm i.d. Discovery HS C-18 reversed-phase column with 0.25 ml/min water:methanol:2-propanol:acetic acid:dichloromethane (53:35:5:5:2, v/v) as a mobile phase. The sample residues were dissolved in 40 μl of mobile phase, respectively, and 5 μl of the solution was injected for analysis. Mass spectra were recorded on a quadruple ion-trap instrument (LCQ®, ThermoFinnigan, San Jose, Calif.) using positive-ion atmospheric-pressure chemical ionization (APCI) as the method of ionization. MS/MS and MS^3 product-ion scans were obtained after collision-induced dissociation (CID) with helium as the target gas. […] As an internal standard, 1,3,5(10)-estratrien-17α-ethynyl-17β-ol was added before each sample extraction.

Q: Which IC50 [1] does the source give for `C[C@]12CC[C@@H]3c4cc(C56CC7CC(CC(C7)C5)C6)c(O)cc4CC[C@H]3[C@@H]1CCC2=O` [ZYC3, 2-(1-adamantyl)-3-hydroxyestra-1,3,5(10)-trien-17-one] here?
A: Its IC50 is 5.8 ± 1.3 µM.

Q: What about the “effect on RGC viability, compound alone” value [2] of the same compound?
A: The value was “no affect”.

Q: What about the “RGC killed by glutamate in the presence of the compound” value [2] of the same compound?
A: Its value is “killed significantly fewer cells”.

Q: What about the IC50 [3] of the same compound?
A: Its IC50 is 5.3 ± 1.2 µM.

Q: With `N[C@@H](CCC(=O)O)C(=O)O` [glutamate, reference compound] as the compound, how does the “RGC killed by glutamate” value ([2]; glutamate 5 mM alone) read?
A: The value was “about 70%”.

Q: For `C[C@]12CC[C@@H]3c4cc(C56CC7CC(CC(C7)C5)C6)c(O)cc4CC[C@H]3[C@@H]1CC[C@@H]2O` [2-(1-adamantyl)-estra-1,3,5(10)-triene-3,17β-diol], which logP [4] is on record?
A: Its logP is 6.51.

Q: And the IC50 [1]?
A: Its IC50 is 0.75 ± 0.11 µM.

Q: What about the IC50 [3] of the same compound?
A: Its IC50 is 1.5 ± 0.1 µM.

Q: Which “antagonism of ZYC1 protection of RGC” value ([2]; glutamate 5 mM, ZYC1 plus various concentrations of estrogen receptor antagonist) does the source give for `C[C@]12CC[C@@H]3c4ccc(O)cc4C[C@@H](CCCCCCCCC[S+]([O-])CCCC(F)(F)C(F)(F)F)[C@H]3[C@@H]1CC[C@@H]2O` (some centres unmarked) [IC1182,780, reference compound] here?
A: Its value is “little antagonism”.

Q: Which “effect on RGC viability, compound alone” value [2] does the source give for `C[C@]12CC=C3c4ccc(O)cc4CC[C@H]3[C@@H]1CCC2O` (some centres unmarked) [ZYC1, 3,17-dihydroxyestra-1,3,5(10),9(11)-tetraene] here?
A: The value was “no effect”.

Q: And the “RGC killed by glutamate in the presence of the compound” value [2]?
A: Its value is “killed significantly fewer cells; also recorded: reduced the number of RGC killed by glutamate”.

Q: For `C[C@]12CC[C@H]3[C@@H](CCC4=CC(=O)C(C56CC7CC(CC(C7)C5)C6)=C[C@@]43O)[C@@H]1CC[C@@H]2O` [2-(1-adamantyl)-10β,17β-dihydroxyestra-1,4-dien-3-one], which logP ([4]; n-octanol/water, shake-flask, read-out: logPexp) is on record?
A: The logP was 3.26.

Q: Which results are given for `C[C@]12CC[C@H]3[C@@H](CCC4=CC(=O)C=C[C@@]43O)[C@@H]1CCC2=O` [estrone quinol, 10β-hydroxyestra-1,4-diene-3,17-dione]?
A: rate of conversion ([5]; 10-fold excess NADPH, 0.1 mM quinol, 0.1M sodium phosphate buffer pH 7.5): 6e-07 ± 4e-08 M/min; formation of estrone ([5]; incubation with NADH or NADPH, pH 7.5): clearly detectable
